Experimental data as given in patent US11590129B2, “Combination therapy with an antitumor alkaloid” (PHARMA MAR, S.A., priority 2010, dated 2023).
Read-outs that look alike come from different tables or passages of the source. Starred links: 1 amine or outer side, 2 acyl side, 3 side chain; linkers in the order of their positions; H or OH if unused. Positions of bridges follow the written chain, without caps; N, C: chain ends. Non-standard residues stand in square brackets, D forms with d. Residues, ends and D or L forms follow the SMILES beside them. Chains are numbered I, II in the order given. Actinocin(9to1) = Cc1c2oc3c(C)ccc(C(=O)[*:1])c3nc-2c(C(=O)[*:2])c(N)c1=O; NMeV = CN[C@H](C(=O)O)C(C)C; Sar = CNCC(=O)O

Experiments:
[1] = test system: IGROV-1 human ovarian adenocarcinoma cell line; assay: cells
Description: (§1) a. […] Briefly, cells were harvested and seeded in 96 well microtiter plates at a density of 5,000 cells in 150 μL of culture medium and incubated for 24 hours in drug-free medium before treatment with vehicle alone or test compounds for 72 h.
(§2) The cytotoxic effect was measured by the MTT reduction assay, in which 3-(4,5-Dimethylthiazol-2-yl)-2,5-diphenyltetrazolium bromide, a tetrazole, which is reduced to purple formazan in the mitochondria of living cells, was used. MTT (50 μL of 1 mg/mL stock solution) was added to the wells and incubated for 8 hours at 37° C. until formazan crystals were formed. After gently removing the culture medium, DMSO was added to dissolve the insoluble purple formazan product into a colored solution. […] Results were expressed as percentage of control cell growth.
(§3) b. In a second set of assays, A549 human tumor cells were incubated with PM01183 in combination with each of the agents mentioned above.
(§4) As a visual aid, response values were plotted on a scatter plot with dose ratios given on the x-axis and % response values on the y-axis. […] In cases where response values at the two endpoints were approximately equivalent, points lying above or below this predicted line of additivity could be interpreted as representing antagonistic or synergistic drug interaction, respectively.
(§5) Additional serial dilutions were prepared in serum-free culture medium to achieve a final 4× concentration. Aliquots of 50 μL of each diluted compound were added per well.
IGROV-1 was the human ovarian adenocarcinoma cell line selected for this assay.

[2] = test system: RXF-393 human kidney carcinoma cell line; assay: cells
Description: as §1, §2, §3, §4, §5

[3] = test system: MDA-MB-231 human breast adenocarcinoma cell line; assay: cells
Description: as §1, §2, §3, §4, §5

[4] = test system: U87-MG human glioblastoma cell line; assay: cells; conditions: Homo sapiens, U-87 MG, 72 h
Description: as §1, §2, §3, §4, §5
U87-MG was the human glioblastoma cell line selected for this assay.

[5] = test system: HGC-27 human gastric carcinoma cell line; assay: cells
Description: as §1, §2, §3, §4, §5
HGC-27 was the human gastric carcinoma cell line selected for this assay.

[6] = test system: PANC-1 human pancreatic carcinoma cell line; assay: cells
Description: as §1, §2, §3, §4, §5
PANC-1 was the human pancreatic carcinoma cell line selected for this assay.

[7] = test system: HT-29 human colon adenocarcinoma cell line; assay: cells
Description: as §1, §2, §3, §4, §5
HT-29 was the human colon adenocarcinoma cell line selected for this assay.

[8] = test system: PC-3 human prostate cancer cell line; assay: cells
Description: as §1, §2, §3, §4, §5
PC-3 was the human prostate adenocarcinome cell line selected for this assay.

[9] = test system: A673 human rhabdomyosarcoma cell line; assay: cells
Description: as §1, §2, §3, §4, §5
A673 was the human rhabdomyosarcoma cell line selected for this assay.

[10] = test system: A549 human lung carcinoma cell line; assay: MTT cytotoxicity assay in A549 cells: IC50 of single agents and combinations with PM01183; type: cell-based
Description: as §5
A549 was the human lung carcinoma cell line selected for this assay.
as §1, §2, §3, §4

[11] = test system: HepG2 human hepatocellular liver carcinoma cell line; assay: MTT cytotoxicity assay in HepG2 cells: IC50 of single agents and combinations with PM01183; type: cell-based; conditions: Homo sapiens
Description: as §1, §2, §3, §4, §5
HepG2 was the human hepatocellular liver carcinoma cell line selected for this assay.

[12] = test system: SK-MEL-2 human melanoma cell line; assay: cells; conditions: Homo sapiens, SK-MEL-2, 72 h
Description: as §1, §2, §3, §4, §5
SK-MEL-2 was the human melanoma cell line selected for this assay.

[13] = test system: HT1080 tumors; assay: Human fibrosarcoma (HT1080) orthotopically implanted in athymic nude mice, total diameter (tumor+leg) % T/C; type: in vivo
Description: Female athymic nude mice (Harlan Laboratories Models, S.L. (Barcelona, Spain) were utilized for all experiments. Animals were housed in individually ventilated cages, up to ten per cage in a 12-hour light-dark cycle at 21-23° C. and 40-60% humidity. The mice were allowed free access to irradiated standard rodent diet and sterilized water. Animals were acclimated for at least 5 days prior to tumor implantation with a tumor cell suspension.
HT1080 cells were grown at 37° C. with 5% CO2 in Minimum Essential Medium Eagle (MEME). Each animal was orthotopically implanted into gastroecnemius muscle by an intramuscular injection using 26G needle and a 1 cc syringe, with 5×10^6 HT1080 cells, from in vitro passage 9, suspended in serum free medium, without antibiotics.
Total diameter (tumor+leg) measurements were determined by using digital caliper (Fowler Sylvac, S235PAT). This total diameter and animal body weights were measured 2-3 times per week starting from the first day of treatment.
Treatment tolerability was assessed by monitoring body weight evolution, clinical signs as well as evidences of local damage in the injection site.
PM01183 was provided in the form of vials of lyophilized PM01183 cake which was reconstituted with water for infusion to a concentration of 0.2 mg/mL. The PM01183 stock solution was further diluted in 5% glucose solution for injection to the dosing formulation concentrations. Dacarbazine was provided in the form of a solution prepared by diluting the product with 5% glucose solution for injection to the target final concentration.
Dose level groups were administered either as single agents or in combination.
Comparison of the median total diameter (tumor+leg) in the treatment groups (T) to the median total diameter (tumor+leg) in the control group (T/C×100%) was used for evaluation of the antitumor efficacy.

C#Cc1cccc(Nc2ncnc3cc(OCCOC)c(OCCOC)cc23)c1 [Erlotinib, erlotinib]
IC50 ([1]; Homo sapiens, IGROV-1, 72 h): 7.91 µM
IC50 ([2]; Homo sapiens, RXF 393, 72 h): 4.8 µM
IC50 ([3]; Homo sapiens, MDA-MB-231, 72 h): 100 µM
IC50 [4]: 149 µM
IC50 ([5]; Homo sapiens, HGC-27, 72 h): 7.5 µM
IC50 ([6]; Homo sapiens, PANC-1, 72 h): 0.416 µM
IC50 ([7]; Homo sapiens, HT-29, 72 h): 25.6 µM
IC50 ([8]; Homo sapiens, PC-3, 72 h): 233 µM
IC50 ([9]; Homo sapiens, A673, 72 h): 50 µM
IC50 ([10]; Homo sapiens, A549, 72 h): 10 µM
IC50 ([11]; HepG2, 72 hours drug exposure, MTT, read-out: IC50): 8.6 µM

Cc1c2oc3c(C)ccc(C(=O)N[C@@H]4C(=O)N[C@H](C(C)C)C(=O)N5CCC[C@H]5C(=O)N(C)CC(=O)N(C)[C@@H](C(C)C)C(=O)O[C@@H]4C)c3nc-2c(C(=O)N[C@@H]2C(=O)N[C@H](C(C)C)C(=O)N3CCC[C@H]3C(=O)N(C)CC(=O)N(C)[C@@H](C(C)C)C(=O)O[C@@H]2C)c(N)c1=O [Actinomycin D, actinomycin D] (I: T[dV]P[Sar][NMeV] / II: T[dV]P[Sar][NMeV]; ester I:1-I:C, II:1-II:C; linker I:N-II:N via Actinocin(9to1))
IC50 ([1]; IGROV-1, 72 hours drug exposure, MTT): 0.00329 µM
IC50 ([2]; RXF-393, 72 hours drug exposure, MTT): 0.000709 µM
IC50 ([3]; MDA-MB-231, 72 hours drug exposure, MTT): 0.000454 µM
IC50 ([5]; HGC-27, 72 hours drug exposure, MTT): 0.00374 µM
IC50 ([6]; PANC-1, 72 hours drug exposure, MTT): 0.022 µM
IC50 ([7]; HT-29, 72 hours drug exposure, MTT): 0.00327 µM
IC50 ([8]; PC-3, 72 hours drug exposure, MTT): 0.01 µM
IC50 ([9]; A673, 72 hours drug exposure, MTT): 0.000956 µM
IC50 ([10]; A549, 72 hours drug exposure, MTT, read-out: IC50): 0.0047 µM

CN(C)/N=N/c1[nH]cnc1C(N)=O [Dacarbazine, dacarbazine]
IC50 [12]: 630 µM
IC50 ([1]; Homo sapiens, IGROV-1, 72 h): 398 µM
IC50 ([2]; Homo sapiens, RXF 393, 72 h): 794 µM
IC50 ([3]; Homo sapiens, MDA-MB-231, 72 h): 19.2 µM
IC50 [4]: 700 µM
IC50 ([5]; Homo sapiens, HGC-27, 72 h): 346 µM
IC50 ([7]; Homo sapiens, HT-29, 72 h): 24.7 µM
IC50 ([9]; Homo sapiens, A673, 72 h): 300 µM
% T/C on day 0 ([13]; Dacarbazine 37.5 mg/kg): 100%
% T/C on day 2 ([13]; Dacarbazine 37.5 mg/kg): 51.8%
% T/C on day 4 ([13]; Dacarbazine 37.5 mg/kg): 54.3%
% T/C on day 7 ([13]; Dacarbazine 37.5 mg/kg): 65.4%
% T/C on day 9 ([13]; Dacarbazine 37.5 mg/kg): 61.3%
% T/C on day 11 ([13]; Dacarbazine 37.5 mg/kg): 47.9%
% T/C on day 14 ([13]; Dacarbazine 37.5 mg/kg): 55.1%
% T/C on day 16 ([13]; Dacarbazine 37.5 mg/kg): 62.1%
% T/C on day 0 ([13]; Dacarbazine 112.5 mg/kg): 100%
% T/C on day 2 ([13]; Dacarbazine 112.5 mg/kg): 48.1%
% T/C on day 4 ([13]; Dacarbazine 112.5 mg/kg): 34.3%
% T/C on day 7 ([13]; Dacarbazine 112.5 mg/kg): 53.8%
% T/C on day 9 ([13]; Dacarbazine 112.5 mg/kg): 48.0%
% T/C on day 11 ([13]; Dacarbazine 112.5 mg/kg): 37.5%
% T/C on day 14 ([13]; Dacarbazine 112.5 mg/kg): 43.2%
% T/C on day 16 ([13]; Dacarbazine 112.5 mg/kg): 53.2%
% T/C on day 0 ([13]; Dacarbazine 150.0 mg/kg): 100%
% T/C on day 2 ([13]; Dacarbazine 150.0 mg/kg): 40.7%
% T/C on day 4 ([13]; Dacarbazine 150.0 mg/kg): 28.6%
% T/C on day 7 ([13]; Dacarbazine 150.0 mg/kg): 30.8%
% T/C on day 9 ([13]; Dacarbazine 150.0 mg/kg): 44.0%
% T/C on day 11 ([13]; Dacarbazine 150.0 mg/kg): 37.5%
% T/C on day 14 ([13]; Dacarbazine 150.0 mg/kg): 44.9%
% T/C on day 16 ([13]; Dacarbazine 150.0 mg/kg): 57.3%
IC50 ([10]; Homo sapiens, A549, 72 h): 600 µM

CCc1c2c(nc3ccc(OC(=O)N4CCC(N5CCCCC5)CC4)cc13)-c1cc3c(c(=O)n1C2)COC(=O)[C@]3(O)CC [Irinotecan, irinotecan]
IC50 [12]: 18 µM
IC50 ([1]; Homo sapiens, IGROV-1, 72 h): 10 µM
IC50 ([2]; Homo sapiens, RXF 393, 72 h): 14 µM
IC50 ([3]; Homo sapiens, MDA-MB-231, 72 h): 8.5 µM
IC50 [4]: 7.54 µM
IC50 ([5]; Homo sapiens, HGC-27, 72 h): 4 µM
IC50 ([6]; Homo sapiens, PANC-1, 72 h): 90 µM
IC50 ([7]; Homo sapiens, HT-29, 72 h): 9 µM
IC50 ([8]; Homo sapiens, PC-3, 72 h): 70 µM
IC50 ([11]; HepG2, 72 h): 1 µM
